Measured values reported in US20250135050A1, “IODIDE NANOPARTICLES AND COMPOSITIONS OF METHODS OF USE THEREOF” (University of Georgia Research Foundation, Inc., priority 2021, published 2025).

Key:
[1] = system: MCF-7 cells; assay: MTT cytotoxicity assay; assay type: cell-based; conditions: FIG. 3A
Experimental: Cells were seeded in 96 well-plates (Corning, 3599) with 10,000 cells/well. […] The cellular media was replaced with media of the appropriate concentration of materials and incubated for a further 24 hours. MTT reagent was then added in the culture medium, followed by incubation at 37° C. for 3 h and the resulting purple crystal solubilized in DMSO. The absorbance was measured on a microplate reader (SynergyMx) at 590 nm, with the measurements performed in at least triplicate.

[2] = system: NIS; assay: NIS expression by flow cytometry; assay type: cell-based; conditions: MCF-7 cells, tRA 1 μM
Experimental: In addition to MCF-7, MDA-MB-231 cells, which have a low expression of NIS, were analyzed as a comparison.

Row | Structure (SMILES) | toxicity of iodide [1] | NIS expression [2]
1 | I [iodide] | little toxicity | –
2 | CC1=C(/C=C/C(C)=C/C=C/C(C)=C/C(=O)O)C(C)(C)CCC1 [tRA, Trans retinoic acid] | – | induced NIS expression
